The values that follow come from US4009273A, “Substituted 10,11-dihydro-5,10-imino-[5H] dibenzo (a,d)-cycloheptene” (priority 1972, dated 1977).

Bounds are passed on as bounds.

A short description of one data set: Acute toxicity. The conditions noted are these: mouse, in vivo, ip, Swiss mice, observed for a week. The procedure: The acute toxicity was determined on groups of Swiss mice weighing 18 to 22 g and the test products were administered intraperitoneally in increasing doses and the animals were kept under observation for a week.
In the next data set the test system is amphetamine deaths. As to the kind of experiment: Amphetamine toxicity in mice. It counts as in vivo, mice (female). The conditions noted are these: mortality at 4 h. The procedure: The test was effected on group of 10 female mice weighing between 18 and 22 g kept at 27° C for the duration of the test. The test products were intraperitoneally administered in different doses in a volume of 0.01 ml /g of mouse. One hour later, the mice received an injection of 15 mg/kg of a solution of 1.5 mg of amphetamine per ml of physiological serum. The mortality 4 hours after the amphetamine injection was determined and the results were expressed as a ratio of number of dead animals to number of starting animals.

Data set [1] concerns pentamethylenetetrazol convulsions. As to the kind of experiment: Anticonvulsant effect (pentamethylenetetrazol perfusion). It is filed as in vivo, mice (female). The conditions noted are these: 1 h before perfusion. The procedure:
The anticonvulsant activity of the compounds was determined on groups of 10 female mice with intraperitoneal administration of the test compounds in acid solution at different doses and the control group received only the solvent. One hour after the injection, the mice were perfused with a solution of pentamethylenetetrazol in physiological serum at a concentration of 3 mg/ml. The perfusion was intraveinous at a rate of 1 ml per minute and in the course of the perfusion, the progress of introxication was characterized by the following 3 criteria:
a. Threshold of convulsant effect (myoclonia of the ears)
b. Crisis of clonic convulsions
c. Tonic convulsion with apnea and generally followed by death.

Another data set concerns amytal sleeping time. Put plainly: Potentialization of sleeping time (amytal). It counts as in vivo, mice (female). The conditions noted are these: 1 h before 80 mg/kg amytal i.v. The procedure: The potentialization of sleeping time was determined with a test using amytal [5-ethyl-5-isoamyl-barbituric acid] in which groups of female mice weighing between 18 and 22 g were kept at 25° C for the duration of the test. The test products were administered intraperitoneally at different doses one hour before intraveinous injection of 80 mg/kg of amytal and the sleeping time was noted which is the time while the reflux of straightening in the mice was negative.

[2] abbreviates: 5 mg/Kg i.p., 1 h before 15 mg/kg amphetamine.
The mark [3] stands for this setting: 10 mg/Kg i.p., 1 h before 15 mg/kg amphetamine.
The mark [4] stands for this setting: 20 mg/Kg i.p., 1 h before 15 mg/kg amphetamine.
Where [5] appears, read: 2 mg/Kg i.p., 1 h before 15 mg/kg amphetamine.

In the data set “Acute toxicity”, `NC(=O)N1C2Cc3ccccc3C1c1ccccc12` (stereo not drawn) [Example 13, 12-carbamoyl-10,11-dihydro-5,10-imino-[5H]-dibenzo (a,d) cycloheptene dl] registered an LD50 at 168 h of 1000 mg/kg.

In the data set “Acute toxicity”, `c1ccc(CN2C3Cc4ccccc4C2c2ccccc23)cc1` (stereo not drawn) [Example 23, 12-benzyl-10,11-dihydro-5,10-imino-[5H]-dibenzo (a,d) cycloheptene dl] displayed a median lethal dose (LD50) at 168 h greater than 400 mg/kg.

For `CN1C2Cc3ccccc3C1c1ccc(Cl)cc12` (stereo not drawn) [Example 26, 8-chloro-12-methyl-10,11-dihydro-5,10-imino-[5H]-dibenzo (a,d) cycloheptene dl], the “ratio of number of dead animals to number of starting animals” value (from here on “ratio of number of dead animals”) in the data set with amphetamine deaths (setting [2]) is 10/10; in the data set on amphetamine deaths (setting [3]), 10/10; in the data set with amphetamine deaths (setting [4]) it was 10/10; in the data set with amphetamine deaths (head prints only "mg/Kg" (dose figure missing), i.p.), 1/9. Further, the “Dose of pentamethylenetetrazol, Clonic Crisis” value (“Dose … Clonic Crisis” for short) came out at 50.8 mg/kg in data set [1] (5 mg/Kg i.p.), 52.0 mg/kg in data set [1] (10 mg/Kg i.p.), 56.4 mg/kg in data set [1] (20 mg/Kg i.p.) and 66.7 mg/kg in data set [1] (50 mg/Kg i.p.). Further, the “Dose of pentamethylenetetrazol, Myoclonia” value (“Dose … Myoclonia” for short) is 43.9 mg/kg in data set [1] (5 mg/Kg i.p.), 44.1 mg/kg in data set [1] (10 mg/Kg i.p.), 49.7 mg/kg in data set [1] (20 mg/Kg i.p.) and 52.6 mg/kg in data set [1] (50 mg/Kg i.p.). Also, the “Dose of pentamethylenetetrazol, Tonic Crisis” value (“Dose … Tonic Crisis” for short) in data set [1] (5 mg/Kg i.p.) was 128 mg/kg; in data set [1] (10 mg/Kg i.p.), 174.7 mg/kg; in data set [1] (20 mg/Kg i.p.) it was 230.2 mg/kg; in data set [1] (50 mg/Kg i.p.), 274.2 mg/kg. Moreover, the average sleeping time turned out to be 22.6 min in the data set on amytal sleeping time (5 mg/Kg i.p.), 27.4 min in the data set with amytal sleeping time (10 mg/Kg i.p.), 36.0 min in the data set with amytal sleeping time (20 mg/Kg i.p.) and 94.5 min in the data set with amytal sleeping time (50 mg/Kg i.p.). In addition, the 50% lethal dose (LD50) at 168 h in “Acute toxicity” was roughly 350 mg/kg.

In the case of `ClCCN1C2Cc3ccccc3C1c1ccccc12` (stereo not drawn) [Example 27, 12-(2'-chloroethyl)-10,11-dihydro-5,10-imino-[5H]-dibenzo (a,d) cycloheptene dl], the “ratio of number of dead animals” value is recorded as 10/10 in the data set on amphetamine deaths (setting [2]), 8/10 in the data set on amphetamine deaths (setting [3]) and 2/10 in the data set with amphetamine deaths (setting [4]). The entries for the “Dose … Clonic Crisis” value in data set [1] (2 mg/Kg i.p.), in data set [1] (5 mg/Kg i.p.) and in data set [1] (10 mg/Kg i.p.) were 52.9 mg/kg, 56.7 mg/kg and 62.1 mg/kg, respectively. In addition, the results for the “Dose … Myoclonia” value in data set [1] (2 mg/Kg i.p.), in data set [1] (5 mg/Kg i.p.) and in data set [1] (10 mg/Kg i.p.) were 45.9 mg/kg, 51.5 mg/kg and 57 mg/kg, respectively. Besides, the “Dose … Tonic Crisis” value in data set [1] (2 mg/Kg i.p.) amounted to 163.2 mg/kg; in data set [1] (5 mg/Kg i.p.) it was 229.8 mg/kg; in data set [1] (10 mg/Kg i.p.), 258.2 mg/kg. In addition, the average sleeping time in the data set with amytal sleeping time (2 mg/Kg i.p.) is 21.7 min; in the data set with amytal sleeping time (5 mg/Kg i.p.) it was 42.2 min; with amytal sleeping time (10 mg/Kg i.p.), 44.8 min; in the data set on amytal sleeping time (20 mg/Kg i.p.), 83.0 min. The compound also displayed an LD50 at 168 h in “Acute toxicity” of roughly 150 mg/kg.

For the compound `c1ccc2c(c1)CC1NC2c2ccccc21` (stereo not drawn) [Example 1, 10,11-dihydro-5,10-imino-[5H]-dibenzo (a,d) cycloheptene dl], the “ratio of number of dead animals” value in the data set with amphetamine deaths (1 mg/Kg i.p., 1 h before 15 mg/kg amphetamine) is given as 10/10; in the data set with amphetamine deaths (setting [5]), 5/10; in the data set with amphetamine deaths (200γ/Kg i.p., 1 h before 15 mg/kg amphetamine) it was 9/10; in the data set with amphetamine deaths (500γ/Kg i.p., 1 h before 15 mg/kg amphetamine), 9/10. For the same compound, the LD50 at 168 h in the data set “Acute toxicity” amounted to 150 mg/kg.

As to `CC(=O)N1C2Cc3ccccc3C1c1ccccc12` (stereo not drawn) [Example 10, 12-acetyl-10,11-dihydro-5,10-imino-5H]-dibenzo (a,d) cycloheptene dl], the LD50 at 168 h in “Acute toxicity” was greater than 500 mg/kg.

In turn, `CP(C)(=O)CN1C2Cc3ccccc3C1c1ccccc12` (stereo not drawn) [Example 9, 12-dimethylphosphorosomethyl-10.11-dihydro-5,10-imino-[5H]-dibenzo (a,d) cycloheptene dl] yielded an LD50 at 168 h in “Acute toxicity” of 350 mg/kg.

`CCOC(=O)N1C2Cc3ccccc3C1c1ccccc12` (stereo not drawn) [Example 17, 12-carbethoxy-10,11-dihydro-5,10imino-[5H]-dibenzo (a,d) cycloheptene dl] registered a 50% lethal dose (LD50) at 168 h in “Acute toxicity” of 1000 mg/kg.

As for `C[N+]1(C)C2Cc3ccccc3C1c1ccccc12` (stereo not drawn) [Example 16, 12-methyl-10,11-dihydro-5,10-imino-[5H]-dibenzo (a,d) cycloheptene dl iodomethylate], the LD50 at 168 h in the data set “Acute toxicity” was greater than 200 mg/kg.

For `CNCC(=O)N1C2Cc3ccccc3C1c1ccccc12` (stereo not drawn) [Example 25, 12-(methylaminoacetyl)-10,11-dihydro-5,10-imino-[5H]-dibenzo (a,d) cycloheptene dl], in “Acute toxicity”, the LD50 at 168 h was roughly 300 mg/kg.

For `C=CCN1C2Cc3ccccc3C1c1ccccc12` (stereo not drawn) [Example 19, 12-allyl-10,11-dihydro-5,10-imino-[5H]-dibenzo (a,d) cyclo-heptene dl], the “Dose … Clonic Crisis” value in data set [1] (2 mg/Kg i.p.) came out at 50.0 mg/kg; in data set [1] (5 mg/Kg i.p.), 49.8 mg/kg; in data set [1] (10 mg/Kg i.p.), 52.4 mg/kg; in data set [1] (20 mg/Kg i.p.), 54.7 mg/kg. The “Dose … Myoclonia” value in data set [1] (2 mg/Kg i.p.) was 44.8 mg/kg; in data set [1] (5 mg/Kg i.p.), 44.5 mg/kg; in data set [1] (10 mg/Kg i.p.), 47.4 mg/kg; in data set [1] (20 mg/Kg i.p.) it was 49.2 mg/kg. The “Dose … Tonic Crisis” value amounted to 150.8 mg/kg in data set [1] (2 mg/Kg i.p.), 136.0 mg/kg in data set [1] (5 mg/Kg i.p.), 241.9 mg/kg in data set [1] (10 mg/Kg i.p.) and 271.8 mg/kg in data set [1] (20 mg/Kg i.p.). In addition, the average sleeping time in the data set on amytal sleeping time (2 mg/Kg i.p.) was 37.1 min; in the data set with amytal sleeping time (5 mg/Kg i.p.), 65.1 min; with amytal sleeping time (10 mg/Kg i.p.) it was 71.7 min; in the data set with amytal sleeping time (20 mg/Kg i.p.), greater than 120 min. In “Acute toxicity”, this compound yielded an LD50 at 168 h of 350 mg/kg.

Consider `C#CCN1C2Cc3ccccc3C1c1ccccc12` (stereo not drawn) [Example 20, 12-propargyl-10,11-dihydro-5,10-imino-[5H]-dibenzo (a,d) cycloheptene dl], for which the “ratio of number of dead animals” value with amphetamine deaths (setting [5]) is listed as 9/10; in the data set with amphetamine deaths (setting [2]) it was 9/10; in the data set on amphetamine deaths (setting [3]) it was 7/10; in the data set with amphetamine deaths (setting [4]) it was 1/10. Moreover, the “Dose … Clonic Crisis” value in data set [1] (0.5 mg/Kg i.p.) amounted to 49.1 mg/kg; in data set [1] (1 mg/Kg i.p.), 46.7 mg/kg; in data set [1] (2 mg/Kg i.p.), 46.2 mg/kg; in data set [1] (5 mg/Kg i.p.), 49.0 mg/kg. Moreover, the “Dose … Myoclonia” value in data set [1] (0.5 mg/Kg i.p.) was found to be 44.2 mg/kg; in data set [1] (1 mg/Kg i.p.) it was 41.9 mg/kg; in data set [1] (2 mg/Kg i.p.), 41.2 mg/kg; in data set [1] (5 mg/Kg i.p.) it was 43.9 mg/kg. Moreover, the “Dose … Tonic Crisis” value in data set [1] (0.5 mg/Kg i.p.) was 140.7 mg/kg; in data set [1] (1 mg/Kg i.p.), 146.4 mg/kg; in data set [1] (2 mg/Kg i.p.) it was 168.5 mg/kg; in data set [1] (5 mg/Kg i.p.), 221.7 mg/kg. Further, the average sleeping time in the data set on amytal sleeping time (0.5 mg/Kg i.p.) came to 41.8 min; in the data set on amytal sleeping time (1 mg/Kg i.p.), 46.5 min; with amytal sleeping time (2 mg/Kg i.p.), 49.4 min; in the data set on amytal sleeping time (5 mg/Kg i.p.), 64.9 min.

`O=C(Oc1ccccc1[N+](=O)[O-])N1C2Cc3ccccc3C1c1ccccc12` (stereo not drawn) [Example 8, 12-(o-nitrophenoxycarbonyl)-10,11-dihydro-5,10-imino-[5H]-dibenzo (a,d) cycloheptene dl] registered an LD50 at 168 h in the data set “Acute toxicity” greater than 1000 mg/kg.
